# Test results reported in patent publication US9096597B2 (priority 2007, dated 2015).
# Where a name gives a salt, the structure may show the parent alone. Read-outs that look alike come from different tables or passages of the source.
# Tests used:
# [1] = system: Machupo pseudotyped virus; test: organism not typed; type: cell-based; conditions: read-out: Activity (EC50 in μM vs. pseudotyped virus) Machupo
# [2] = system: Lassa GP-pseudotyped-virus; test: microbe, parasite or virus in culture; type: cell-based, Lassa fever virus
# VSVg pseudotyped virus = test: microbe, parasite or virus in culture; type: cell-based, vesicular stomatitis virus (VSV); conditions: Vesicular stomatitis virus, read-out: Activity (EC50 in μM vs. pseudotyped virus) VSVg
# Sabiá pseudotyped virus = test: organism not typed; type: cell-based; conditions: read-out: Activity (EC50 in μM vs. pseudotyped virus) Sabiá
# [3] = system: Guanarito pseudotyped virus; test: organism not typed; type: cell-based; conditions: read-out: Activity (EC50 in μM vs. pseudotyped virus) Guanarito
# Junín pseudotyped virus = test: organism not typed; type: cell-based; conditions: read-out: Activity (EC50 in μM vs. pseudotyped virus) Junín
# [4] = Human immunodeficiency virus 1, read-out: Activity (EC50 in μM vs. pseudotyped virus) Lassa
SMILES,EC50 [1],"EC50 [2, 4]",EC50 (VSVg pseudotyped virus),EC50 (Sabiá pseudotyped virus),potency against viral entry mediated by the Lassa envelope glycoprotein [2],"EC50 ([2]; Human immunodeficiency virus 1, HEK-293T, read-out: EC50 against Lassa GP-pseudotyped-virus)",EC50 [3],EC50 (Junín pseudotyped virus)
"CCOc1ccc(-n2cnc3cc(N(Cc4ccc(CC)cc4)S(C)(=O)=O)cnc32)cc1 [Compound 10, N-[3-(4-Ethoxy-phenyl)-3H-imidazo[4,5-b]pyridin-6-yl]-N-(4-ethyl-benzyl)-methanesulfonamide]",1 to 50 µM,1 to 50 µM,,,,,,
"CCOc1ccc(-n2cnc3cc(NCc4ccc(C)cn4)cnc32)cc1 [Compound 3, [3-(4-Ethoxy-phenyl)-3H-imidazo[4,5-b]pyridin-6-yl]-(5-methyl-pyridin-2-ylmethyl)-amine]",,0.05 to 1 µM,> 50 µM,,,,,
"CCOc1ccc(-n2cnc3cc(N(Cc4ccc(CC)cc4)C(=O)c4ccccc4)cnc32)cc1 [Compound 7, N-[3-(4-Ethoxy-phenyl)-3H-imidazo[4,5-b]pyridin-6-yl]-N-(4-ethyl-benzyl)-benzamide]",0.05 to 1 µM,0.05 to 1 µM,,,,,,
"CCOc1ccc(-n2nnc3cc(NCc4ccc(CC)cc4)cnc32)cc1 [Compound 12, [3-(4-Ethoxy-phenyl)-3H-[1,2,3]triazolo[4,5-b]pyridin-6-yl]-(4-ethyl-benzyl)-amine]",0.05 to 1 µM,< 0.05 µM,> 50 µM,0.05 to 1 µM,,,,
"CCOc1ccc(-n2cnc3cc(N(Cc4ccc(CC)cc4)C(C)=O)cnc32)cc1 [Compound 6, N-[3-(4-Ethoxy-phenyl)-3H-imidazo[4,5-b]pyridin-6-yl]-N-(4-ethyl-benzyl)-acetamide]",1 to 50 µM,0.05 to 1 µM,,,,,,
"CCOc1ccc(-n2cnc3nc(NCc4ccc(CC)cc4)ccc32)cc1 [Compound 4, [1-(4-Ethoxy-phenyl)-1H-imidazo[4,5-b]pyridin-5-yl]-(4-ethyl-benzyl)-amine]",0.05 to 1 µM,< 0.05 µM,> 50 µM,0.05 to 1 µM,,,,
"CCOc1ccc(-n2cnc3cc(N(Cc4ccc(CC)cc4)C(=O)CN(C)C)cnc32)cc1 [Compound 8, 2-Dimethylamino-N-[3-(4-ethoxy-phenyl)-3H-imidazo[4,5-b]pyridin-6-yl]-N-(4-ethyl-benzyl)-acetamide hydrochloride]",0.05 to 1 µM,0.05 to 1 µM,,,,,,
"CCOc1ccc(-n2cnc3cc(N(Cc4ccc(CC)cc4)S(=O)(=O)c4ccccc4)cnc32)cc1 [Compound 11, N-[3-(4-Ethoxy-phenyl)-3H-imidazo[4,5-b]pyridin-6-yl]-N-(4-ethyl-benzyl)-benzenesulfonamide]",0.05 to 1 µM,0.05 to 1 µM,,,,,,
"CCOc1ccc(-n2cnc3cc(N(Cc4ccc(CC)cc4)C(=O)CCC(=O)O)cnc32)cc1 [Compound 9, N-[3-(4-Ethoxy-phenyl)-3H-imidazo[4,5-b]pyridin-6-yl]-N-(4-ethyl-benzyl)-succinamic acid]",1 to 50 µM,1 to 50 µM,,,,,,
"CCOc1ccc(-n2cnc3cc(NCc4ccc(CC)cc4)cnc32)cn1 [Compound 2, [3-(6-Ethoxy-pyridin-3-yl)-3H-imidazo[4,5-b]pyridin-6-yl]-(4-ethyl-benzyl)-amine]",,< 0.05 µM,1 to 50 µM,,,,,
"CCOc1ccc(-n2cnc3cc(NCc4ccc(CC)cc4)cnc32)cc1 [Compound 1, [3-(4-Ethoxy-phenyl)-3H-imidazo[4,5-b]pyridin-6-yl]-(4-ethyl-benzyl)-amine]",< 0.05 µM,< 0.05 µM,1 to 50 µM,< 0.05 µM,significantly increased potency,0.00013 µM,< 0.05 µM,< 0.05 µM
